≈ marks a conversion by molar mass, not a printed value. Like-named read-outs stand apart in the source and are kept apart here.
Assays:
Type in all cases: in vivo
[1] = test system: green peach aphid (Myzus persicae); test: leaf dip assay on Chinese cabbage leaves, green peach aphid
Method: The efficacy of flavesone against green peach aphid (Myzus persicae) was tested in a similar leaf dip assay as set out in Example 1, but used Chinese cabbage leaves, and 10 to 100,000 mg/L flavesone concentrations. The green peach aphids used were cultured in the laboratory from field collected insects.

[2] = test system: Russian Wheat Aphid (Diuraphis noxia); test: leaf dip method on wheat leaf segments, Russian Wheat Aphid; conditions: for LC50: concentration giving 50% mortality, 95% CIs
Method: The efficacy of flavesone against Russian Wheat Aphid (Diuraphis noxia) was assessed using the leaf dip method described in Moores et al 1994 (Pesticide Biochemistry and Physiology, 49, 114-120), adapted for use with cereal aphids by using wheat leaf segments.
Serially diluted concentrations of flavesone (1 to 30000 mg/L) were tested at rates designed to include the expected field rate in cereals (Table 1), along with a control of water. Leaf segments (25 mm) cut from wheat (Triticum aestivum) plants were submerged for 1 second in the insecticide solutions or water (control), and placed adaxial side up on 10 g/L agar in 35 mm petri dishes. Once leaves were air-dry, eight 3-4 day old D. noxia nymphs were transferred to insecticide-dipped leaf segments using a fine-haired paintbrush. The population used was originally collected from Dingee (VIC) and maintained in the laboratory under a 18:6 LD cycle at 12-20° C. since June 2016.
The petri dishes were then inverted onto a lid containing a 25 mm diameter filter paper to control humidity, and were placed at 18° C.±2° C. with a photoperiod of 16:8 LD cycle. Six replicates were used for each concentration tested, and responses were assessed after 48 and 96 hours. Aphids were scored as alive (vibrant and moving freely), dead (not moving over a 5 second period), or incapacitated (inhibited movement).
Dose-response curves were generated by plotting percentage mortality against log concentration. Mortality data was analysed using a logistic regression model with random effects. Logistic regression is suited for the analysis of binary response data (i.e. dead/alive) with the random effect component of the model controlling for the non-independence of mortality scores within replicates. […] Analyses were conducted using R version 3.3.1 (R Development Core Team 2018, R: A language and environment for statistical computing. R Foundation for Statistical Computing, Vienna, Austria. http//www.R-project.org).

[3] = test system: cotton aphid (Aphis gossypii); test: field trial, control of cotton aphid in cotton
Method: A field trial was conducted on a small plot of cotton in March 2018 to evaluate flavesone for the control of cotton aphid in cotton. The trial was conducted near Burren Junction in the Lower Namoi Valley Region of New South Wales, Australia. The trial was conducted in a crop grown as per standard commercial practice. It was precision planted on hills in rows 1 m apart and furrow flood irrigated. The crop was fully irrigated being watered as required over the duration of the season. The crop matured to produce good yield, typical of the region for the season. Light rainfall occurred at 6 and 7 days after treatment (DAT). The maximum temperature ranged from 28 to 38° C. and minimum temperature ranged from 14 to 23° C.
The plot was 4 m×8 m and four replicates were used. The plot was infested with cotton aphid at a moderate to high level with 36% of leaves infested pre-spray. The population on the untreated cotton increased over the duration of the trial with 83% leaves infested at 7 DAT.
The crop was either left untreated (control), treated with flavesone (Flavocide 500 EW) at varying concentrations or treated with Pirimor® (pirimicarb, positive control) as set out in Table 3:
The test solution was applied by broadcast method using a hand held boom sprayer with nozzles (Spraying Systems TT110015 flat fans) spaced 50 cm apart, with pressure being 250 kPa. Application speed was 1.5 m/s and the application volume was 105 L/ha.
The effectiveness of the application was evaluated on day 0 and 3 and 7 DAT. 20 leaves in the upper canopy of the plants in each plot were inspected and the number of aphids on each leaf recorded. The percentage of leaves infested and the mean number of aphids per leaf was then determined.
Statistical analyses were conducted using GenStat 64-bit Release 17.1 (PC/Windows Server 2008, VSN International Ltd). The model includes all treatment effects. Analysis of variance and least significant difference (LSD) procedures were used. Further means of separation was achieved by transforming the data using Square Root (x+0.5) or Log Base 10.

CC(C)C(=O)C1C(=O)C(C)(C)C(=O)C(C)(C)C1=O [Flavesone, 1-isobutyroyl-3,3,5,5-tetramethylcyclohexan-2,4,6-trione]
toxicity to green peach aphid ([1]; 10 to 100,000 mg/L): toxic to green peach aphid
concentration at which mortality responses began to increase ([1]; 48 hours): 1000 mg/L
concentration at which mortality increased ([1]; 96 hours): 1000 mg/L
mortality at 10000 µg/mL ([1]; Myzus persicae, foliar, 10,000 mg/L, 96 hours): 100%
mortality at 30000 µg/mL ([1]; Myzus persicae, foliar, 30,000 mg/L, 48 hours exposure): 100%
toxicity to D. noxia ([2]; 1-30,000 mg a.i./L): toxic to D. noxia
LC50 ([2]; Diuraphis noxia, foliar, exposure time not given, read-out: LC50): 405 µg/mL (≈ 1610 µM)
mortality at 3000 µg/mL ([2]; Diuraphis noxia, foliar, 3,000 mg a.i./L, largest increase, read-out: increase of mortality between 48 and 96 hours): 58%
mortality at 30000 µg/mL ([2]; Diuraphis noxia, foliar, 30,000 mg a.i./L, 48 hours exposure): 100%
LC50 ([2]; exposure time not given): 405.4 mg a.i./L
LC90 ([2]; concentration giving 90% mortality, exposure time not given): 1.5 × 10^4 mg a.i./L
LC99 ([2]; concentration giving 99% mortality, exposure time not given): 8.1 × 10^5 mg a.i./L
concentration at which mortality began to increase ([2]; in vivo): 300 mg a.i./L
Mean Number of Cotton Aphid per leaf ([3]; 0.1% v/v, 0 DAT (pre-spray)): 1.5 ab
Mean Percentage of Leaves infested with cotton Aphid ([3]; 0.1% v/v, 0 DAT (pre-spray)): 34%
Mean Number of Cotton Aphid per leaf ([3]; 0.1% v/v, 3 DAT): 1.1 ab
Mean Percentage of Leaves infested with cotton Aphid ([3]; 0.1% v/v, 3 DAT): 15%
Mean Number of Cotton Aphid per leaf ([3]; 0.1% v/v, 7 DAT): 2.5 bc
Mean Percentage of Leaves infested with cotton Aphid ([3]; 0.1% v/v, 7 DAT): 43 c %
Mean Number of Cotton Aphid per leaf ([3]; 0.25% v/v, 0 DAT (pre-spray)): 2.6 b
Mean Percentage of Leaves infested with cotton Aphid ([3]; 0.25% v/v, 0 DAT (pre-spray)): 43%
Mean Number of Cotton Aphid per leaf ([3]; 0.25% v/v, 3 DAT): 2.1 ab
Mean Percentage of Leaves infested with cotton Aphid ([3]; 0.25% v/v, 3 DAT): 39%
Mean Number of Cotton Aphid per leaf ([3]; 0.25% v/v, 7 DAT): 3.1 c
Mean Percentage of Leaves infested with cotton Aphid ([3]; 0.25% v/v, 7 DAT): 38 bc %
Mean Number of Cotton Aphid per leaf ([3]; 0.50% v/v, 0 DAT (pre-spray)): 1.1 . . . ab
Mean Percentage of Leaves infested with cotton Aphid ([3]; 0.50% v/v, 0 DAT (pre-spray)): 30%
Mean Number of Cotton Aphid per leaf ([3]; 0.50% v/v, 3 DAT): 1.0 ab
Mean Percentage of Leaves infested with cotton Aphid ([3]; 0.50% v/v, 3 DAT): 19%
Mean Number of Cotton Aphid per leaf ([3]; 0.50% v/v, 7 DAT): 2.4 bc
Mean Percentage of Leaves infested with cotton Aphid ([3]; 0.50% v/v, 7 DAT): 40 c %
Mean Number of Cotton Aphid per leaf ([3]; 0.75% v/v, 0 DAT (pre-spray)): 1.4 ab
Mean Percentage of Leaves infested with cotton Aphid ([3]; 0.75% v/v, 0 DAT (pre-spray)): 33%
Mean Number of Cotton Aphid per leaf ([3]; 0.75% v/v, 3 DAT): 3.4 b
Mean Percentage of Leaves infested with cotton Aphid ([3]; 0.75% v/v, 3 DAT): 34%
Mean Number of Cotton Aphid per leaf ([3]; 0.75% v/v, 7 DAT): 2.7 bc
Mean Percentage of Leaves infested with cotton Aphid ([3]; 0.75% v/v, 7 DAT): 50 c %
Mean Number of Cotton Aphid per leaf ([3]; 1.00% v/v, 0 DAT (pre-spray)): 0.6 a
Mean Percentage of Leaves infested with cotton Aphid ([3]; 1.00% v/v, 0 DAT (pre-spray)): 26%
Mean Number of Cotton Aphid per leaf ([3]; 1.00% v/v, 3 DAT): 0.2 a
Mean Percentage of Leaves infested with cotton Aphid ([3]; 1.00% v/v, 3 DAT): 9%
Mean Number of Cotton Aphid per leaf ([3]; 1.00% v/v, 7 DAT): 1.0 ab
Mean Percentage of Leaves infested with cotton Aphid ([3]; 1.00% v/v, 7 DAT): 19 b %
control of cotton aphid ([3]; highest 1% v/v rate): slightly better control

From patent publication US11800866B2, “Methods for control of pests” (Bio-Gene Technology Limited, priority 2018, dated 2023)
